Converted amounts (≈) assume the structure as drawn. Like-named read-outs stand apart in the source and are kept apart here.
Legend:
[1] = test system: NIH-Swiss female mice; assay: Radioprotection compared with amifostine, 45 min before or after TBI (Example 4); assay type: in vivo
Method: NIH-Swiss female mice were divided into 8 groups (10 mice/group). (A) Forty-five min prior to 7.5 Gy TBI, mice were treated by i.p. injection with UTS-1401 (75 mg/kg), amifostine (75 mg/kg) or vehicle, respectively. Mice in control group were not irradiated. (B) Same procedure as in (A) except that mice were treated by testing agents forty-five min after 7.5 Gy TBI.
FIG. 4 is a graph of the effects of UTS-1401 and amifostine on TBI induced in NIH-Swiss mice mortality administered 45 minutes before TBI determined according to Example 4.
FIG. 5 is a graph of the effects of UTS-1401 and amifostine on TBI induced in NIH-Swiss mice mortality administered 45 minutes after TBI determined according to Example 4.

[2] = test system: NIH-Swiss female mice; assay: Radioprotection against TBI induced mortality, 30 min pretreatment (Example 2); assay type: in vivo; conditions: 80 mg/kg i.p. 30 min prior to 7.5 Gy TBI
Method: NIH-Swiss female mice were divided into 5 groups (8 mice/group). Thirty min prior to 7.5 Gy TBI, mice were treated by i.p. injection with UTS-1401, -1402, and -1403 (80 mg/kg each) or vehicle, respectively. Mice in control group were not irradiated. Definition of “death” used in this study was when a mouse actually died or when a mouse lost 20% or more of its bodyweight.
FIG. 2 is a graph of the radioprotection of UTS-1401, -1402, and -1403 determined according to Example 2.

[3] = test system: NIH-Swiss female mice; assay: Drug dose-dependent radioprotection against TBI induced mortality, 30 min pretreatment (Example 3); assay type: in vivo; conditions: 25 or 75 mg/kg i.p. 30 min prior to 7.5 Gy TBI
Method: NIH-Swiss female mice were divided into 4 groups (8 mice/group). Thirty min prior to 7.5 Gy TBI, mice were treated by i.p. injection with UTS-1401 (0, 2, or 6 mg/mL or 0, 25, or 75 mg/kg) or vehicle, respectively. Mice in control group were not irradiated. Definition of “death” used in this study was when a mouse actually died or when a mouse lost 20% or more of its bodyweight.
FIG. 3 is a graph of the dose-dependent effect of UTS-1401 on TBI induced mortality in NIH-Swiss mice determined according to Example 3.

[4] = Solubility determination of UTS-14 compounds; assay type: physicochemical; conditions: thermodynamic from solid
Method: If the compound was not dissolved, more solvent was added and the solution was watched again after one day. This procedure was continued until the compound was completely dissolved, after which the solubility was calculated.

[5] = test system: H9C2 cardiomyocytes; assay: Protection against doxorubicin-induced damage on cardiomyocytes in vitro (MTT assay); assay type: cell-based; conditions: 30 min pretreatment before DOX, assayed 3 days later
Method: Briefly, myocardiocytes H9C2 were cultured in high glucose DMEM with 10% bovine calf serum and 10,000 cells per well of cardiomyocytes were treated by DOX with and without the 30 min pretreatment of UTS-1401. The survival rates were assayed by MTT assay 3 days later.
FIG. 8 is a graph showing protection of UTS-1401 on H9C2 cardiomyocytes against DOX-induced determined according to Example 6.

[6] = test system: NIH Swiss male mice; assay: Radioprotection, 24 hr pretreatment, male mice (Example 5); assay type: in vivo
Method: NIH Swiss male mice were studied for the radioprotective effects of UTS-1401 at 50, 100, and 150 mg/kg respectively by i.p. injection at 24 hr before TBI at 6.5, 7.5, and 8.5 Gy. […] These observations indicate that UTS-1401 is effective as a radioprotector for male NIH Swiss mice against TBI of both 7.5 and 8.5 Gy.
FIG. 6 is a graph of the effect of UTS-1401 on TBI induced mortality in NIH-Swiss mice administered at 100 mg/kg determined according to Example 5.

[7] = test system: NIH Swiss female mice; assay: Radioprotection, 24 hr pretreatment, female mice (Example 5); assay type: in vivo
Method: Only 8.5 Gy results are summarized here.
FIG. 7 is a graph of the effect of UTS-1401 on TBI induced mortality in NIH-Swiss mice administered at 150 mg/kg determined according to Example 5.

[8] = 75 mg/kg i.p. 45 min after 7.5 Gy TBI
[9] = 75 mg/kg i.p. 45 min before 7.5 Gy TBI
[10] = water, rm temp, read-out: solubility in water
[11] = 50, 100, and 150 mg/kg 24 hr before 8.5 Gy TBI

For `CSCc1cc(C(=O)O)no1` [UTS-1401], the “survival rate of mice” value [1, 8] was “significantly increased the survival rate”, the “survival rate of mice” value [1, 9] was “increased the survival rate” and the “radioprotection as compared with amifostine” value ([1]; 75 mg/kg i.p. 45 min before or after 7.5 Gy TBI) was “better radioprotection as compared with amifostine”. The “survival of irradiated mice” value [2] was “increased the survival”, the “survival rate of mice” value [3] was “increased the survival rate of mice in a dose-dependent manner” and the solubility ([4]; saline or isotonic, saline, 37° C., read-out: solubility in saline at 37° C.) was 12 mg/mL (≈ 69.3 mM). For the same compound, the solubility [4, 10] was about 9.5 mg/mL (≈ 54.9 mM), the “protection of cardiomyocytes (survival rates by MTT)” value [5] was “protected cardiomyocytes significantly” and the survival rates ([6]; 50, 100, 150 mg/kg i.p. 24 hr before 7.5 Gy TBI) was “greatly increased”. The “dose dependence of survival rates” value ([6]; 50, 100, 150 mg/kg i.p. 24 hr before 7.5 and 8.5 Gy TBI) was “drug-dose dependent”, the survival rates ([6]; 50, 100, 150 mg/kg i.p. 24 hr before 8.5 Gy TBI) was “greatly increased” and the “day from which average body wt of surviving pretreated mice started to recover” value ([6]; i.p. 24 hr before TBI) was about 20 days. The “dose dependence of radioprotective effects” value [7, 11] was “essentially the same for all 3 doses”, the “radioprotective effects / mortality” value [7, 11] was “significant radioprotective effects and reduced the mortality” and the optimal dose ([7]; 24 hr before 8.5 Gy TBI) was “around 50 mg/kg”.

In the case of `C[S+]([O-])Cc1cc(C(=O)O)no1` (stereo not shown) [UTS-1402], the “survival of irradiated mice” value [2] is reported as “increased the survival” and the solubility [4, 10] is reported as about 16 mg/mL (≈ 84.6 mM).

In the case of `CS(=O)(=O)Cc1cc(C(=O)O)no1` [UTS-1403], the “survival of irradiated mice” value [2] is reported as “increased the survival”, the solubility ([4]; Hank's Balanced Salt Solution (HBSS), saline or isotonic, read-out: solubility in Hank's Balanced Salt Solution (HBSS)) is reported as about 15.8 mg/mL and the solubility [4, 10] is reported as about 9.1 mg/mL (≈ 44.3 mM).

In the case of `NCCCNCCSP(=O)(O)O` [amifostine, Amifostine, reference compound], the “survival rate of mice” value [1, 8] is reported as “did not increase the survival rate” and the “survival rate of mice” value [1, 9] is reported as “increased the survival rate”.

— US11236056B2, “Small molecules and methods of reducing injuries caused by radiation or chemicals” (priority 2019, dated 2022)
